Experimental findings from US10369122B2, “Benzene-1,3,5-tricarboxamide derivatives and uses thereof” (OHIO STATE INNOVATION FOUNDATION, priority 2015, dated 2019) are described below.

This test concerns Hep3B cells. Put plainly: TT LLNs-mediated luciferase transfection assay. The note with it: for K1 (average luminescence intensity, Kn = ΣRLIn/4): level 1 of the component; for K2 (average luminescence intensity, Kn = ΣRLIn/4): level 2 of the component; for K3 (average luminescence intensity, Kn = ΣRLIn/4): level 3 of the component; for K4 (average luminescence intensity, Kn = ΣRLIn/4): level 4 of the component. It counts as cell-based, human. On the procedure:
R. et. al. J. Am. Chem. Soc. 2011, 133, 8995-9004). After formulation, the freshly formed […] were used immediately for cell transfection. For in vivo studies, the freshly prepared LLNs were then dialyzed against PBS buffer using Slide-A-Lyzer dialysis cassettes (3.5 K MWCO, Life Technologies, Grand island, N.Y.). […] Entrapment efficiency of LLNs was determined using the Ribogreen assay reported previously (Love Kevin, T. et. al. Proc. Natl. Acad. Sci. […] Chen, D. et. al. J. Am. Chem. Soc. 2012, 134, 6948-6951). TT LLNs-Mediated Luciferase Transfection Assay. The human hepatocellular carcinoma cell line Hep3B was purchased from American Type Culture Collection (Manassas, Va.) and maintained at 37° C. with 5% CO2 in Eagle's Minimum Essential Medium (MEM) supplemented with 10% heat inactivated FBS. […] Transfections were performed in triplicate. After 6 h of transfection, culture medium containing TT LLNs was carefully removed, and 50 μL of serum-free EMEM and 50 μL of Bright-Glo luciferase substrate were mixed and added to each well. […] Free Flue mRNA served as a negative control. Orthogonal Array Experimental Design. In order to identify a preferred molar ratio of the formulation components, an orthogonal array experiment design was utilized. Four formulation components were assigned in the following orthogonal experiments with a fixed TT/mRNA ratio (10/1). TT3S-DOPE LLNs 1-1 to 1-16 were prepared according to the orthogonal array design table L16(4)^4 and used to transfect Hep3B cells (Table 2). […] On the basis of the result of the first round of nanoparticle formulation, the levels of each factor were further refined, and the second round orthogonal experiment with 16 formulations TT3-DOPE LLNs 2-1 to 2-16 was conducted (Table 4). A similar analysis was performed as described above.

Take “1,2-dimyristoyl-sn-glycerol, methoxypolyethylene glycol-2000 [DMG-PEG2000]”: for the setting “first round of TT3-DOPE LLNs”, the “ΔK = Kmax − Kmin (impact of the component on mRNA delivery)” value (shortened to “ΔK = Kmax − Kmin”) stood at 1121; the “K1 (average luminescence intensity, Kn = ΣRLIn/4)” value amounted to 1295; the “K2 (average luminescence intensity, Kn = ΣRLIn/4)” value came out at 407; the “K3 (average luminescence intensity, Kn = ΣRLIn/4)” value is given as 424. Moreover, the “K4 (average luminescence intensity, Kn = ΣRLIn/4)” value (first round of TT3-DOPE LLNs) came out at 174. Moreover, for the setting “second round of TT3-DOPE LLNs”, the “ΔK = Kmax − Kmin” value was determined as 43788; the “K1 (average luminescence intensity, Kn = ΣRLIn/4)” value is 56896; the “K2 (average luminescence intensity, Kn = ΣRLIn/4)” value amounted to 56833; the “K3 (average luminescence intensity, Kn = ΣRLIn/4)” value is recorded as 42863. For the same molecule, the “K4 (average luminescence intensity, Kn = ΣRLIn/4)” value (second round of TT3-DOPE LLNs) was found to be 13109.

Take `CC(C)CCC[C@@H](C)[C@H]1CC[C@H]2[C@@H]3CC=C4C[C@@H](O)CC[C@]4(C)[C@H]3CC[C@]12C` [Cholesterol, cholesterol]: for the setting “first round of TT3-DOPE LLNs”, the “ΔK = Kmax − Kmin” value was 1121; the “K1 (average luminescence intensity, Kn = ΣRLIn/4)” value is listed as 108; the “K2 (average luminescence intensity, Kn = ΣRLIn/4)” value is listed as 1229; the “K3 (average luminescence intensity, Kn = ΣRLIn/4)” value is given as 428. Further, the “K4 (average luminescence intensity, Kn = ΣRLIn/4)” value (first round of TT3-DOPE LLNs) stood at 535. Moreover, under “second round of TT3-DOPE LLNs”, the “ΔK = Kmax − Kmin” value was determined as 18025; the “K1 (average luminescence intensity, Kn = ΣRLIn/4)” value was determined as 29028; the “K2 (average luminescence intensity, Kn = ΣRLIn/4)” value is given as 35974; the “K3 (average luminescence intensity, Kn = ΣRLIn/4)” value is 47647. Also, the “K4 (average luminescence intensity, Kn = ΣRLIn/4)” value (second round of TT3-DOPE LLNs) is 57052.

As for `CCCCCCCC/C=C\CCCCCCCC(=O)OC[C@H](COP(=O)(O)OCCN)OC(=O)CCCCCCC/C=C\CCCCCCCC` [DOPE, 1,2-dioleoyl-sn-glycero-3-phosphoethanolamine], for the setting “first round of TT3-DOPE LLNs”, the “ΔK = Kmax − Kmin” value was determined as 1231; the “K1 (average luminescence intensity, Kn = ΣRLIn/4)” value is listed as 325; the “K2 (average luminescence intensity, Kn = ΣRLIn/4)” value came to 369; the “K3 (average luminescence intensity, Kn = ΣRLIn/4)” value came out at 188. The “K4 (average luminescence intensity, Kn = ΣRLIn/4)” value (first round of TT3-DOPE LLNs) is on record as 1419. Under “second round of TT3-DOPE LLNs”, the “ΔK = Kmax − Kmin” value amounted to 19529; the “K1 (average luminescence intensity, Kn = ΣRLIn/4)” value is 33465; the “K2 (average luminescence intensity, Kn = ΣRLIn/4)” value is 38426; the “K3 (average luminescence intensity, Kn = ΣRLIn/4)” value was 52995. Also, the “K4 (average luminescence intensity, Kn = ΣRLIn/4)” value (second round of TT3-DOPE LLNs) is listed as 44816.
